Key:
[1] = humans; cited from earlier work
[2] = tested on: mdx mouse diaphragm muscle; experiment: Fluorescence staining of nanoparticle and rapamycin deposition in mdx diaphragm; format: in vivo; conditions: mdx mouse treated with rapamycin-loaded nanoparticles
Source text: The nanoparticles were rhodamine-labeled, and the rapamycin was labeled with Cy-7.

CO[C@H]1C[C@@H]2CC[C@@H](C)[C@@](O)(O2)C(=O)C(=O)N2CCCC[C@H]2C(=O)O[C@H]([C@H](C)C[C@@H]2CC[C@@H](O)[C@H](OC)C2)CC(=O)[C@H](C)/C=C(\C)[C@@H](O)[C@@H](OC)C(=O)[C@H](C)C[C@H](C)/C=C/C=C/C=C/1C [rapamycin]
oral absorption [1]: 18%
distribution of Cy-7 labeled rapamycin in diaphragm muscle [2]: both punctate and diffuse staining

— patent publication US9415018B2, “Methods for improving muscle strength” (Washington University, priority 2012, dated 2016)
